The values that follow come from PubChem BioAssay AID328 (DTP/NCI, 2004).

The test system of the assay is BDF1 mice, P388 leukemia ip, median survival T/C. The experiment in a line: NCI In Vivo Anticancer Drug Screen. Data for tumor model P388 Leukemia (intraperitoneal) in B6D2F1 (BDF1) mice. The note with it: endpoint: median survival time, higher = longer survival. Summed up:
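Each value expresses how treatment altered survival: treated-mouse outcome over vehicle-mouse outcome, both groups bearing the transplanted tumour.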

Where [1] appears, read: dose: 12.5 mg/kg/injection, schedule: Q01DX009 (ip), vehicle: saline with Tween-80.
The mark [2] stands for this setting: dose: 25.0 mg/kg/injection, schedule: Q01DX009 (ip), vehicle: saline with Tween-80.
The mark [3] stands for this setting: dose: 50.0 mg/kg/injection, schedule: Q01DX009 (ip), vehicle: saline with Tween-80.
[4] abbreviates: dose: 100.0 mg/kg/injection, schedule: Q01DX009 (ip), vehicle: saline with Tween-80.
The mark [5] stands for this setting: dose: 200.0 mg/kg/injection, schedule: Q01DX009 (ip), vehicle: saline with Tween-80.
The mark [6] stands for this setting: dose: 100.0 mg/kg/injection, schedule: Q04DX003 (ip), vehicle: saline with Tween-80.
[7] abbreviates: dose: 25.0 mg/kg/injection, schedule: Q04DX003 (ip), vehicle: saline with Tween-80.
[8] abbreviates: dose: 50.0 mg/kg/injection, schedule: Q04DX003 (ip), vehicle: saline with Tween-80.

Each structure is given as a SMILES string. Inconclusive results and toxic doses are left out.

For `CCCC(NC(N)=O)C(CCC)NC(N)=O` (configuration not stated), the T/C under setting [1] is 102 % of control, the T/C under setting [2] was 100 % of control and the T/C under setting [3] is 89 % of control.

Consider `CN=Cc1ccc([N+](=O)[O-])cc1`, for which the T/C is 113 % of control (dose: 100.0 mg/kg/injection, schedule: Q01DX001 (ip), vehicle: Klucel (hydroxypropylcellulose) (HPC)) and 104 % of control (dose: 200.0 mg/kg/injection, schedule: Q01DX001 (ip), vehicle: Klucel (hydroxypropylcellulose) (HPC)).

Take `Nc1nc(=S)c2[nH]c(N=Nc3ccc(S(=O)(=O)Nc4ncccn4)cc3)nc2[nH]1`: the T/C (dose: 50.0 mg/kg/injection, schedule: Q01DX009 (ip), vehicle: Klucel (hydroxypropylcellulose) (HPC)) was 118 % of control; the T/C (dose: 50.0 mg/kg/injection, schedule: Q04DX003 (ip), vehicle: Klucel (hydroxypropylcellulose) (HPC)) was 108 % of control; the T/C (dose: 100.0 mg/kg/injection, schedule: Q01DX009 (ip), vehicle: Klucel (hydroxypropylcellulose) (HPC)) was 100 % of control; the T/C (dose: 100.0 mg/kg/injection, schedule: Q04DX003 (ip), vehicle: Klucel (hydroxypropylcellulose) (HPC)) is 108 % of control; the T/C (dose: 200.0 mg/kg/injection, schedule: Q01DX009 (ip), vehicle: Klucel (hydroxypropylcellulose) (HPC)) was 86 % of control; the T/C (dose: 200.0 mg/kg/injection, schedule: Q04DX003 (ip), vehicle: Klucel (hydroxypropylcellulose) (HPC)) is 112 % of control.

For `C(=N\c1ncn[nH]1)/c1ccco1`, the T/C is 111 % of control under setting [3], 99 % of control under setting [4] and 102 % of control under setting [5].

Turning to `CC(=O)O[C@H]1[C@H]2O[C@]23[C@@H]2CC[C@@H]4C[C@@H](OC(=O)CCC(=O)O)CC[C@]4(C)[C@H]2CC[C@]3(C)[C@H]1c1ccc(=O)oc1`, the T/C reads like this: (dose: 0.13 mg/kg/injection, schedule: Q01DX009 (ip), vehicle: Klucel (hydroxypropylcellulose) (HPC)) 100 % of control; (dose: 0.25 mg/kg/injection, schedule: Q01DX009 (ip), vehicle: Klucel (hydroxypropylcellulose) (HPC)) 101 % of control; (dose: 0.5 mg/kg/injection, schedule: Q01DX009 (ip), vehicle: Klucel (hydroxypropylcellulose) (HPC)) 101 % of control.

In the case of `O=C(CCl)N1c2ccccc2Oc2cc3ccccc3cc21`, the T/C runs as follows: under setting [4], 104 % of control; under setting [6], 104 % of control; under setting [5], 90 % of control; (dose: 200.0 mg/kg/injection, schedule: Q04DX003 (ip), vehicle: saline with Tween-80) 100 % of control; (dose: 400.0 mg/kg/injection, schedule: Q01DX009 (ip), vehicle: saline with Tween-80) 104 % of control; (dose: 400.0 mg/kg/injection, schedule: Q04DX003 (ip), vehicle: saline with Tween-80) 113 % of control.

With `Cc1ccc(C)c(OS(=O)(=O)c2ccc([N+](=O)[O-])cc2)c1`, the T/C runs as follows: (dose: 100.0 mg/kg/injection, schedule: Q01DX001 (ip), vehicle: saline sonified) 100 % of control; (dose: 200.0 mg/kg/injection, schedule: Q01DX001 (ip), vehicle: saline sonified) 104 % of control; (dose: 400.0 mg/kg/injection, schedule: Q01DX001 (ip), vehicle: saline sonified) 90 % of control.

Turning to `COc1cc2c(cc1O)C(=O)CCC(C(=O)O)=C2`, the T/C is, setting by setting: under setting [2], 106 % of control; under setting [3], 111 % of control; under setting [4], 101 % of control.

With `CCc1nc(N)nc(N)c1-c1ccc(Cl)c(Cl)c1`, the T/C was 110 % of control (dose: 6.25 mg/kg/injection, schedule: Q01DX010 (ip), vehicle: carboxymethylcellulose (CMC)); 90 % of control (dose: 8.0 mg/kg/injection, schedule: Q01DX009 (sc), vehicle: Klucel (hydroxypropylcellulose) (HPC)); 90 % of control (dose: 8.0 mg/kg/injection, schedule: Q03HX024 (ip), vehicle: Klucel (hydroxypropylcellulose) (HPC)); 100 % of control (dose: 12.5 mg/kg/injection, schedule: Q01DX010 (ip), vehicle: carboxymethylcellulose (CMC)); 90 % of control (dose: 25.0 mg/kg/injection, schedule: Q01DX010 (ip), vehicle: carboxymethylcellulose (CMC)); 163 % of control (dose: 32.0 mg/kg/injection, schedule: Q04DX003 (ip), vehicle: Klucel (hydroxypropylcellulose) (HPC)). The T/C reads like this: (dose: 64.0 mg/kg/injection, schedule: Q08DX002 (ip), vehicle: Klucel (hydroxypropylcellulose) (HPC)) 86 % of control; (dose: 128.0 mg/kg/injection, schedule: Q01DX001 (sc), vehicle: Klucel (hydroxypropylcellulose) (HPC)) 100 % of control; (dose: 128.0 mg/kg/injection, schedule: Q08DX002 (ip), vehicle: Klucel (hydroxypropylcellulose) (HPC)) 86 % of control.

As to `CC1=CC(=C2C=CC(=[N+](C)C)C=C2)C=C(C)S1`, the T/C runs as follows: (dose: 3.12 mg/kg/injection, schedule: Q01DX009 (ip), vehicle: distilled water + Tween-80 + alcohol) 113 % of control; (dose: 6.25 mg/kg/injection, schedule: Q01DX009 (ip), vehicle: distilled water + Tween-80 + alcohol) 109 % of control; (dose: 12.5 mg/kg/injection, schedule: Q01DX009 (ip), vehicle: distilled water + Tween-80 + alcohol) 114 % of control; (dose: 25.0 mg/kg/injection, schedule: Q01DX009 (ip), vehicle: distilled water + Tween-80 + alcohol) 97 % of control.

As for `CCOC(=O)CSc1cc(C)c2c(N)c(C(=O)OCC)sc2n1`, the T/C reads like this: (dose: 50.0 mg/kg/injection, schedule: Q01DX005 (ip), vehicle: saline with Tween-80) 88 % of control; (dose: 100.0 mg/kg/injection, schedule: Q01DX005 (ip), vehicle: saline with Tween-80) 91 % of control; (dose: 200.0 mg/kg/injection, schedule: Q01DX005 (ip), vehicle: saline with Tween-80) 89 % of control.

Take `Cc1cccc(C(=O)C=C(C(F)(F)F)C(F)(F)F)c1`: the T/C (dose: 6.25 mg/kg/injection, schedule: Q01DX009 (ip), vehicle: saline with Tween-80) is 110 % of control; the T/C under setting [1] was 155 % of control; the T/C (dose: 12.5 mg/kg/injection, schedule: Q04DX003 (ip), vehicle: saline with Tween-80) was 119 % of control; the T/C (dose: 12.5 mg/kg/injection, schedule: Q04DX003 (sc), vehicle: saline with Tween-80) is 105 % of control; the T/C under setting [2] was 150 % of control; the T/C under setting [7] was 104 % of control. Further, the T/C was 115 % of control (dose: 25.0 mg/kg/injection, schedule: Q04DX003 (sc), vehicle: saline with Tween-80); 119 % of control under setting [8]; 120 % of control (dose: 50.0 mg/kg/injection, schedule: Q04DX003 (sc), vehicle: saline with Tween-80).

On to `NC(COc1ccccc1)Cc1ccccc1` (configuration not stated), for which the T/C by setting is: under setting [7], 113 % of control; (dose: 25.0 mg/kg/injection, schedule: Q04DX003 (ip), vehicle: suspension in saline) 90 % of control; under setting [8], 123 % of control; (dose: 50.0 mg/kg/injection, schedule: Q04DX003 (ip), vehicle: suspension in saline) 90 % of control; under setting [6], 105 % of control; (dose: 100.0 mg/kg/injection, schedule: Q04DX003 (ip), vehicle: saline) 109 % of control. Further, for the setting “dose: 100.0 mg/kg/injection, schedule: Q04DX003 (ip), vehicle: suspension in saline”, the T/C was 98 % of control.

Consider `COc1cccc(CNc2ccc(C)c(Cl)c2)c1OC`, for which the T/C reads like this: (dose: 12.5 mg/kg/injection, schedule: Q01DX009 (ip), vehicle: gum acacia) 92 % of control; (dose: 25.0 mg/kg/injection, schedule: Q01DX009 (ip), vehicle: gum acacia) 107 % of control; (dose: 50.0 mg/kg/injection, schedule: Q01DX009 (ip), vehicle: gum acacia) 103 % of control; (dose: 100.0 mg/kg/injection, schedule: Q04DX003 (ip), vehicle: gum acacia) 91 % of control; (dose: 200.0 mg/kg/injection, schedule: Q04DX003 (ip), vehicle: gum acacia) 95 % of control; (dose: 400.0 mg/kg/injection, schedule: Q04DX003 (ip), vehicle: gum acacia) 95 % of control.
